Measured values as given in ChEMBL document CHEMBL1144258, “Topochemical model for prediction of anti-HIV activity of HEPT analogs” (Bioorg Med Chem Lett, 2005).

Experiments:
[1] = test system: Human immunodeficiency virus 1; assay: Inhibitory activity against human immunodeficiency virus type 1 (inactive>0.1); type: functional, organism-based
[2] = test system: Human immunodeficiency virus 1; assay: Inhibitory activity against human immunodeficiency virus type 1; type: functional, organism-based

Row | IC50 [1] | IC50 [2] | Compound
1 | Inactive | – | Cc1c(SC2CCCCN2)n(COCSc2ccccc2)c(=O)[nH]c1=O (stereo not drawn)
2 | Inactive | – | Cc1c(SC2CCCCC2)n(COCN(C(=O)c2ccccc2)C(=O)c2ccccc2)c(=O)[nH]c1=O
3 | – | < 100 nM | CCc1c(Sc2ccccc2)n(COCc2cc3ccccc3o2)c(=O)[nH]c1=O
4 | Inactive | – | CCc1c(Sc2ccccc2)n(COCc2ccc([N+](=O)[O-])s2)c(=O)[nH]c1=O
5 | Inactive | – | Cc1c(Sc2ccccc2)n(COCc2ccccc2)c(=O)[nH]c1=O
6 | Inactive | – | Cc1c(SC2CCCCC2)n(COCNC(=O)CP(=O)(O)O)c(=O)[nH]c1=O
7 | Inactive | – | Cc1c(SC2CCCCC2)n(COCI)c(=O)[nH]c1=O
8 | – | < 100 nM | CCc1c(Sc2cc(C)cc(C)c2)n(COCc2cccs2)c(=O)[nH]c1=O
9 | – | < 100 nM | CCc1c(Sc2cc(C)cc(C)c2)n(COCc2ccco2)c(=O)[nH]c1=O
10 | Inactive | – | Cc1c(SC2CCCCC2)n(COCN2CCNCC2)c(=O)[nH]c1=O
11 | Inactive | – | Cc1c(Sc2ccccc2)n(COCc2cccnc2)c(=O)[nH]c1=O
12 | – | < 100 nM | CCc1c(Sc2cc(C)cc(C)c2)n(COCc2ccccc2)c(=O)[nH]c1=O
13 | Inactive | – | Cc1c(SC2CCCCC2)n(COCN(CC#N)CC#N)c(=O)[nH]c1=O
14 | – | < 100 nM | CCc1c(Sc2ccccc2)n(COCc2ccco2)c(=O)[nH]c1=O
15 | Inactive | – | Cc1c(SC2CCCCC2)n(COCSc2ccncc2)c(=O)[nH]c1=O
16 | Inactive | – | Cc1c(SC2CCCCC2)n(COCNc2ccccc2)c(=O)[nH]c1=O
17 | Inactive | – | Cc1c(SC2CCCCC2)n(COCN(c2ccccc2)c2ccccc2)c(=O)[nH]c1=O

Row | IC50 [1] | IC50 [2] | Compound
18 | Inactive | – | Cc1c(Sc2ccccc2)n(COCc2ccco2)c(=O)[nH]c1=O
19 | Inactive | – | Cc1c(Sc2ccccc2)n(COCC2CCCCC2)c(=O)[nH]c1=O
20 | Inactive | – | Cc1c(Sc2ccccc2)n(COCc2cc3ccccc3o2)c(=O)[nH]c1=O
21 | – | < 100 nM | CCc1c(Sc2ccccc2)n(COCc2cccs2)c(=O)[nH]c1=O
22 | – | < 100 nM | CCc1c(Sc2ccccc2)n(COCc2ccccc2)c(=O)[nH]c1=O
23 | Inactive | – | Cc1c(SC2CCCCC2)n(COCNC(=O)c2ccccc2)c(=O)[nH]c1=O
24 | Inactive | – | Cc1c(SC2CCCCC2)n(COCBr)c(=O)[nH]c1=O
25 | Inactive | – | Cc1c(SC2CCCCN2)n(COCSc2ccncc2)c(=O)[nH]c1=O (stereo not drawn)
26 | Inactive | – | Cc1c(Sc2ccccc2)n(COCc2ccc([N+](=O)[O-])s2)c(=O)[nH]c1=O
27 | Inactive | – | Cc1c(SC2CCCCC2)n(COCN2CCOCC2)c(=O)[nH]c1=O
28 | Inactive | – | Cc1c(SC2CCCCC2)n(COCN)c(=O)[nH]c1=O
29 | Inactive | – | Cc1c(Sc2ccccc2)n(COCc2cccs2)c(=O)[nH]c1=O
30 | Inactive | – | Cc1c(SC2CCCCC2)n(COCNC(=O)CNCP(=O)(O)O)c(=O)[nH]c1=O
31 | Inactive | – | Cc1c(SC2CCCCN2)n(COCNc2ccccc2)c(=O)[nH]c1=O (stereo not drawn)
32 | Inactive | – | Cc1c(SC2CCCCC2)n(COCNC(=O)CCCl)c(=O)[nH]c1=O
33 | Inactive | – | Cc1c(SC2CCCCC2)n(COCSc2ccccc2)c(=O)[nH]c1=O
